Measurements taken from ChEMBL document CHEMBL1909046, “DrugMatrix in vitro pharmacology data”.
pIC50, pKi: −log10 of the molar value.

What was measured:
[1] = molecular target: Sodium-dependent noradrenaline transporter (Homo sapiens, UniProt P23975); experiment: DRUGMATRIX: Norepinephrine Transporter radioligand binding (ligand: [125I] RTI-55); assay type: cell membranes, MDCK, Membrane; conditions: mdck; Not Active = under 50% inhibition at 10 µM
B2 bradykinin receptor = molecular target: T1, B2 bradykinin receptor (Homo sapiens, UniProt P30411); assay type: cell membranes, Membrane; conditions: chem-1; also: in other assays of this panel Not Active means under 50% inhibition at 10 µM
T1 sequence (P30411 whole entry): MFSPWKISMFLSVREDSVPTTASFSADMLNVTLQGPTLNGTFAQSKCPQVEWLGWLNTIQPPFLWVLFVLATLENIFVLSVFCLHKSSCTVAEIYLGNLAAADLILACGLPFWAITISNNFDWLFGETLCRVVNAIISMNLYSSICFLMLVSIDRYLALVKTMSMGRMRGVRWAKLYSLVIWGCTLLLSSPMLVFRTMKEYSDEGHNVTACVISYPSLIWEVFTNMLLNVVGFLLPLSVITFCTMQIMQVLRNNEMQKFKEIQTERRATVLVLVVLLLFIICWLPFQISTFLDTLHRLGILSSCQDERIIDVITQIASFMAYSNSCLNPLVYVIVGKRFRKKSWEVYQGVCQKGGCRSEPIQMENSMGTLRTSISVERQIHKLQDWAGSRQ

[2] = DRUGMATRIX: GABAA, Muscimol, Central radioligand binding (ligand: [3H] Muscimol); assay type: cell membranes, Rattus norvegicus, Wistar, Brain, Membrane; conditions: Not Active = under 50% inhibition at 10 µM
[3] = molecular target: T2, Muscarinic acetylcholine receptor M2 (Homo sapiens, UniProt P08172); assay type: cell membranes, CHO-K1, Membrane; conditions: cho-k1; also: in other assays of this panel Not Active means under 50% inhibition at 10 µM
T2 sequence (P08172 whole entry): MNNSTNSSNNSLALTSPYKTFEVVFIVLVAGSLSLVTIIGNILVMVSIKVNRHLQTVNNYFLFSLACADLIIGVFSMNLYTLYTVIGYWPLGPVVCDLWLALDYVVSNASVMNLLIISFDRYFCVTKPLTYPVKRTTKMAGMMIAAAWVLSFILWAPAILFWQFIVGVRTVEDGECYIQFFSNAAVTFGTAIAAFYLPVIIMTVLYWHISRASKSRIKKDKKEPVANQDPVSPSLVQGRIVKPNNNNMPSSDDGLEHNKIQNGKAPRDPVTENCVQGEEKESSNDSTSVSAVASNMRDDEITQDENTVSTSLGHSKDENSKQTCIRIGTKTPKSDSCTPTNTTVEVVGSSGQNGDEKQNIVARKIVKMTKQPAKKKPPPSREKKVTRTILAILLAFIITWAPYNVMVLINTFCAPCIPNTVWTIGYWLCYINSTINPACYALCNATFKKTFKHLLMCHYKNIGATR

[4] = molecular target: T3, Muscarinic acetylcholine receptor M5 (Homo sapiens, UniProt P08912); assay type: cell membranes, CHO-K1, Membrane; conditions: cho-k1; also: in other assays of this panel Not Active means under 50% inhibition at 10 µM
T3 sequence (P08912 whole entry): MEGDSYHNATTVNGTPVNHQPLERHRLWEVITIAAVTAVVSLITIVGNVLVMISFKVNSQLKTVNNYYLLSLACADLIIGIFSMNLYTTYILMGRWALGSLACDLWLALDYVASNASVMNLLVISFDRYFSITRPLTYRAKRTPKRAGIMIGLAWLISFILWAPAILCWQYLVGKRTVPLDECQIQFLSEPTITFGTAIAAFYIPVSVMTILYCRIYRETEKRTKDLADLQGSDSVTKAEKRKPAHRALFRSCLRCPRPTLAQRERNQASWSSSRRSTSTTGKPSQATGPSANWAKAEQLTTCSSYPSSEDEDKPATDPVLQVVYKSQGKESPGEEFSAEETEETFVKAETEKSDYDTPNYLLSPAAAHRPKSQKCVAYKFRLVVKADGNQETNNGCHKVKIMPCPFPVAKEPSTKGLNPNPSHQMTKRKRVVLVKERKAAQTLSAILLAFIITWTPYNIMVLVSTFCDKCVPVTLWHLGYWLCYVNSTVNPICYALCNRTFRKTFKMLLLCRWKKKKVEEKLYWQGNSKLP

[5] = molecular target: T4, Neuropeptide Y receptor type 1 (Homo sapiens, UniProt P25929); assay type: cell membranes, Membrane; conditions: sk-n-mc; also: in other assays of this panel Not Active means under 50% inhibition at 10 µM
T4 sequence (P25929 whole entry): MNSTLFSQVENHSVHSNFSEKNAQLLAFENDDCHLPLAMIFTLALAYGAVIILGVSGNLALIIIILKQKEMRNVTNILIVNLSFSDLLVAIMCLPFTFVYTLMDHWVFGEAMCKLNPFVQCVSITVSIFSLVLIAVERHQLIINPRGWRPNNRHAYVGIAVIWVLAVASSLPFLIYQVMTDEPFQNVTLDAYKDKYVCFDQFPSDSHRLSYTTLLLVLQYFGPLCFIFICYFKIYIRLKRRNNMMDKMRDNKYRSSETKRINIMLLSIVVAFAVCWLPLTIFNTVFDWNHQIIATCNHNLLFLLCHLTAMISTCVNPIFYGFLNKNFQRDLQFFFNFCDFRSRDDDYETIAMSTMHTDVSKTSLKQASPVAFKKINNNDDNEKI

Nitric oxide synthase 1 = Nitric oxide synthase 1 (Rattus norvegicus, UniProt P29476); assay type: tissue-based, Cerebellum; also: in other assays of this panel Not Active means under 50% inhibition at 10 µM
Chain of Nitric oxide synthase 1 (P29476 whole entry): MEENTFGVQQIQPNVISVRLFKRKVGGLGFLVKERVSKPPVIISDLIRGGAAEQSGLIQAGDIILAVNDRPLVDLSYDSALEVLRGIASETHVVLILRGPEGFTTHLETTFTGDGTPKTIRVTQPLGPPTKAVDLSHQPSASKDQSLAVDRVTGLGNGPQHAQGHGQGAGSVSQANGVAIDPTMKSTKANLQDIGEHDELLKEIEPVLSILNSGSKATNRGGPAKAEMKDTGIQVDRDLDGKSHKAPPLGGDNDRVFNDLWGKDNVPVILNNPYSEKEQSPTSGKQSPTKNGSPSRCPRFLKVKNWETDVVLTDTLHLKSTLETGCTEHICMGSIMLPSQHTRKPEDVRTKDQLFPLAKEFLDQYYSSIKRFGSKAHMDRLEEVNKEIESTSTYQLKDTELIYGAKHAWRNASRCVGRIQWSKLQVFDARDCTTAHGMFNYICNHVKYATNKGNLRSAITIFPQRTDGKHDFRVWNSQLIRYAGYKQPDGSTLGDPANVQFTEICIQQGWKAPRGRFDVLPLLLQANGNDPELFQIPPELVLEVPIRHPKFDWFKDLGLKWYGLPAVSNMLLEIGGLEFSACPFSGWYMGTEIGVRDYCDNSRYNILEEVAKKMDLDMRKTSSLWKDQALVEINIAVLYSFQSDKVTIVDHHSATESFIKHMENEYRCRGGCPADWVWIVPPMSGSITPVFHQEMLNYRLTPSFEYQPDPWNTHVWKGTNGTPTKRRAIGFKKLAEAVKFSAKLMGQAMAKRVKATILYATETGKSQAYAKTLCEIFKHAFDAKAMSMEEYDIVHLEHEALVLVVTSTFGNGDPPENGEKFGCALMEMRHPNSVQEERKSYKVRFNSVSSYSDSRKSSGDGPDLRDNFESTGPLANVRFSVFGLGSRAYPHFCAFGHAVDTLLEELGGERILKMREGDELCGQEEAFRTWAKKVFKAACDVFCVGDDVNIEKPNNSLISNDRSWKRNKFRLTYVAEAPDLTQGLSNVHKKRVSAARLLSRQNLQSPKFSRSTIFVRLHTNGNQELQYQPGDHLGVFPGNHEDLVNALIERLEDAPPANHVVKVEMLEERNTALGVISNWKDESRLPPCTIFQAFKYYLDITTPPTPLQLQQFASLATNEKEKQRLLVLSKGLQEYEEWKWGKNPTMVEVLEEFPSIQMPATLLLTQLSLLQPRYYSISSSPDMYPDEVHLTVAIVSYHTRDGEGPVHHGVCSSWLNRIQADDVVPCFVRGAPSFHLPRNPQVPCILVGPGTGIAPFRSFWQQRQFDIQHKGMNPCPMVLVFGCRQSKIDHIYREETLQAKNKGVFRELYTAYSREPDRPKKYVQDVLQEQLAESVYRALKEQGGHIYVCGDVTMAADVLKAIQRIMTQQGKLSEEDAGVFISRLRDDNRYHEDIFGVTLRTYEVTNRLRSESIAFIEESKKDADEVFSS

[6] = molecular target: Delta-type opioid receptor (Homo sapiens, UniProt P41143); assay type: cell membranes, HEK293, Membrane; conditions: hek293; also: in other assays of this panel Not Active means under 50% inhibition at 10 µM
Chain of Delta-type opioid receptor (P41143 whole entry): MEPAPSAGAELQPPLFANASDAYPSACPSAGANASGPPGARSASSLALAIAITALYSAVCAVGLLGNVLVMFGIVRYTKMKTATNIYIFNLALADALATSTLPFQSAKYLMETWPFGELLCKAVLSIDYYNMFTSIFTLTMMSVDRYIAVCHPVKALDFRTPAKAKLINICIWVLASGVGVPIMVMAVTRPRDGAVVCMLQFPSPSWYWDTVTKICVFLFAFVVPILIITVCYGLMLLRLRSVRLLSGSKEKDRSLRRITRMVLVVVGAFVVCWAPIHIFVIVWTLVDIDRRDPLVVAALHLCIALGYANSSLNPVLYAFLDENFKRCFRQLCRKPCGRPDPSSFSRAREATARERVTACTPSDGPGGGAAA

[7] = molecular target: Mitogen-activated protein kinase 3 (Homo sapiens, UniProt P27361); experiment: DRUGMATRIX: Protein Serine/Threonine Kinase, ERK1 enzyme inhibition (substrate: Myelin Basic Protein); parameters: species or system Escherichia coli; conditions: Not Active = under 50% inhibition at 10 µM
Chain of Mitogen-activated protein kinase 3 (P27361 whole entry): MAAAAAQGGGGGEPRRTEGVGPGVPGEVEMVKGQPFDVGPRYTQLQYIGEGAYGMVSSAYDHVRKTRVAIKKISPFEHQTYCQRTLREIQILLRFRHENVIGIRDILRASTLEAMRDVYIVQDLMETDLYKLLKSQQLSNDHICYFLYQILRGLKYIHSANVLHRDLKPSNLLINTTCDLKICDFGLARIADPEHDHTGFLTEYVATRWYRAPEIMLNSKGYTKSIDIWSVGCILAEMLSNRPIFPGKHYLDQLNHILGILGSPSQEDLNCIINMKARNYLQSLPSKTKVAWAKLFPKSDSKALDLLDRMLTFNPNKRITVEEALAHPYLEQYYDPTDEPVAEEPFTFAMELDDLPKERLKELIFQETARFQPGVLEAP

Adenosine receptor A3 = molecular target: T5, Adenosine receptor A3 (Homo sapiens, UniProt P0DMS8); assay type: cell membranes, CHO-K1, Membrane; conditions: cho-k1; for pIC50: read-out: IC50; for pKi: read-out: Ki
T5 sequence (P0DMS8 whole entry): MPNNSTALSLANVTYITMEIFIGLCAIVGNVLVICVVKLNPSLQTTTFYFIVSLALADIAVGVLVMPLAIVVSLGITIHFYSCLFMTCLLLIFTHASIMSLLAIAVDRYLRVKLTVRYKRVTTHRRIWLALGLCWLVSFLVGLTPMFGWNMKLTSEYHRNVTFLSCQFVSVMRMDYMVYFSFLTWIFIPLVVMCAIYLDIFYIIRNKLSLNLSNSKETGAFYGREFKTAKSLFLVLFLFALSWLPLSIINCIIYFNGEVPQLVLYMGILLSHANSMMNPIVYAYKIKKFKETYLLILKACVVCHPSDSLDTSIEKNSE

Cytochrome P450 2D6 = Cytochrome P450 2D6 (Homo sapiens, UniProt P10635); conditions: bti-tn-5b1-4; also: in other assays of this panel Not Active means under 50% inhibition at 10 µM
Chain of Cytochrome P450 2D6 (P10635 whole entry): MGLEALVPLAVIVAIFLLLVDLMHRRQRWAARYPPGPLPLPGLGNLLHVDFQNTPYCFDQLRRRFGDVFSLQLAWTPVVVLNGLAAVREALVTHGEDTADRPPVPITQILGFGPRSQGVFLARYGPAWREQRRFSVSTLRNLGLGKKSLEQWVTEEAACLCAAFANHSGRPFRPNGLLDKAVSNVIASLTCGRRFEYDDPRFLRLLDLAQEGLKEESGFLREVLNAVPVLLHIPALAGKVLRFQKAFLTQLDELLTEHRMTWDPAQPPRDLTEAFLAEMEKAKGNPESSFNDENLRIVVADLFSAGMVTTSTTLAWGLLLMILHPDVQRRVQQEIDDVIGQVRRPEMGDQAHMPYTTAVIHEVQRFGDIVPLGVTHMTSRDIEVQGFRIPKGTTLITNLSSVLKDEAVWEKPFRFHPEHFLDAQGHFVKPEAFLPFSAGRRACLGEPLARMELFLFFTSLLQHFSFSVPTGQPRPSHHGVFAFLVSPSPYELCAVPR

Chain of Sodium-dependent noradrenaline transporter (P23975 whole entry): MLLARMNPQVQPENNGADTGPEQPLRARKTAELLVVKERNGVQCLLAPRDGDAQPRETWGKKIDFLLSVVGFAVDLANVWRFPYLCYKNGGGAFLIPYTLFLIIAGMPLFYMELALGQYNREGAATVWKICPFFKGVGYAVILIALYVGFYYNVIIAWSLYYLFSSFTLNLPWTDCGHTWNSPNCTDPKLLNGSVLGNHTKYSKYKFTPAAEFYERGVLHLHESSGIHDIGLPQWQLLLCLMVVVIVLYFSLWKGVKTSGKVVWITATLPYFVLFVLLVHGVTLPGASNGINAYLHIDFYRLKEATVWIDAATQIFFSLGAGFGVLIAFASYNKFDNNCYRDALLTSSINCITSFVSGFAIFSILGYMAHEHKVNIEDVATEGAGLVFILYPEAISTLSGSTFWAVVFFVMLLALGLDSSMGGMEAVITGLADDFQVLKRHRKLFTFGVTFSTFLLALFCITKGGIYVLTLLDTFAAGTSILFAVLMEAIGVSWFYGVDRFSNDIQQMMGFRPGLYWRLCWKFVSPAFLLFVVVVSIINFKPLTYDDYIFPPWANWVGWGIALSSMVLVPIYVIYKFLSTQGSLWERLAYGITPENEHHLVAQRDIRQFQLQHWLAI

Compound | IC50 [1] | IC50 (B2 bradykinin receptor) | IC50 [2] | Ki [2] | IC50 [3] | IC50 [4] | IC50 [5] | IC50 (Nitric oxide synthase 1) | IC50 [6] | IC50 [7] | IC50 (Adenosine receptor A3) | IC50 (Cytochrome P450 2D6) | Ki (Cytochrome P450 2D6) | Ki [1] | Ki (B2 bradykinin receptor) | Ki [3] | Ki [4] | Ki [5] | Ki (Nitric oxide synthase 1) | Ki [6] | further results
CC(C)(S)[C@@H](N)C(=O)O [PENICILLAMINE] | Not Active | Not Active | Not Active | Not Active | Not Active | Not Active | Not Active | Not Active | Not Active | Not Active | Not Active | Not Active | Not Active |  |  |  |  |  |  |  | 
CC(=O)CCCCn1c(=O)c2c(ncn2C)n(C)c1=O [PENTOXIFYLLINE] | Not Active | Not Active | Not Active | Not Active | Not Active | Not Active | Not Active | Not Active | Not Active | Not Active | Not Active | Not Active | Not Active |  |  |  |  |  |  |  | 
O=C1NC(=O)C(c2ccccc2)(c2ccccc2)N1 [PHENYTOIN] | Not Active | Not Active | Not Active | Not Active | Not Active | Not Active | Not Active | Not Active | Not Active | Not Active | Not Active | Not Active | Not Active |  |  |  |  |  |  |  | 
C=C(C)[C@@H]1[C@H]2OC(=O)[C@@H]1[C@]1(O)C[C@H]3O[C@]34C(=O)O[C@H]2[C@]14C [PICROTOXININ] | Not Active | Not Active | Not Active | Not Active | Not Active | Not Active | Not Active | Not Active | Not Active | Not Active | Not Active | Not Active | Not Active |  |  |  |  |  |  |  | 
CN1C(C(=O)Nc2ccccn2)=C(O)c2ccccc2S1(=O)=O [PIROXICAM] | Not Active | Not Active | Not Active | Not Active | Not Active | Not Active | Not Active | Not Active | Not Active | Not Active | Not Active | Not Active | Not Active |  |  |  |  |  |  |  | 
CCC1(c2ccccc2)C(=O)NCNC1=O [PRIMIDONE] | Not Active | Not Active | Not Active | Not Active | Not Active | Not Active | Not Active | Not Active | Not Active | Not Active | Not Active | Not Active | Not Active |  |  |  |  |  |  |  | 
CCCc1cc(=O)[nH]c(=S)[nH]1 [PROPYLTHIOURACIL] | Not Active | Not Active | Not Active | Not Active | Not Active | Not Active | Not Active | Not Active | Not Active | Not Active | Not Active | Not Active | Not Active |  |  |  |  |  |  |  | 
CARBOPLATIN | Not Active | Not Active | Not Active | Not Active | Not Active | Not Active | Not Active | Not Active | Not Active | Not Active | Not Active | Not Active | Not Active | Not Active | Not Active | Not Active | Not Active | Not Active | Not Active | Not Active | Ki [7]: Not Active; Ki (Adenosine receptor A3): Not Active
CISPLATIN | Not Active | Not Active | Not Active | Not Active | Not Active | Not Active | Not Active | Not Active | Not Active |  |  | Not Active | Not Active | Not Active | Not Active | Not Active | Not Active | Not Active | Not Active | Not Active | pIC50 ([7]; read-out: IC50): 5.33; pIC50 (Adenosine receptor A3): 5.37; pKi (Adenosine receptor A3): 5.62
GOLD SODIUM THIOMALATE | Not Active | Not Active | Not Active | Not Active | Not Active | Not Active | Not Active | Not Active | Not Active | Not Active |  | Not Active | Not Active | Not Active | Not Active | Not Active | Not Active | Not Active | Not Active | Not Active | Ki [7]: Not Active; pIC50 (Adenosine receptor A3): 5.83; pKi (Adenosine receptor A3): 6.07
